The text below walks through data of patent publication US20230286973A1, “PROTEIN SECRETION INHIBITORS” (KEZAR LIFE SCIENCES, priority 2020, published 2023).

The subject of data set [1] is multiple myeloma cell line NCI-H929. Put plainly: H929 Cell Viability Assay. Conditions: Homo sapiens, NCI-H929, 48 h, NCI-H929 cells, Celltiter-Glo. The class given is cell-based, human. Put shortly:
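Cells in RPMI 1640/10% FBS; compound dilutions in DMSO/media; 48 h, 37° C, 5% CO2; CellTiter-Glo luciferase readout for viability.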
(In general: ATP-based viability assays read luminescence as a measure of living cells.)

Data set [2] can be described thus: Liver Microsome Stability Assay (monkey). Conditions: monkey liver microsomes, with NADPH, 1.0 uM compound. Background: Microsomes from liver hold many membrane-bound enzymes, among them those of drug oxidation.
Experimental: (§1) Stability of a compound was assessed in the presence of liver microsomes from various sources—mouse, rat, monkey and human liver microsomes. 1.0 uM compound, 0.4% DMSO in 0.1 M Potassium Phosphate with 1.0 mg/mL liver microsomes, were incubated at 37° C. with or without 1 mM NADPH. The samples were quenched at 0, and 30 minutes.
For data set [3], the system named is IL-2-FL/Gaussia Luciferase. Put plainly: Dox Induced IL2-FL-Gluc Assay. It counts as cell-based. Particulars: for IC50: 24 hr Dox induction, 293FRT/TO cells, read-out: 24 hr Dox Inducible IL2FLGluc 293FRT/TO: Mean IC50; for 24 hr Dox Inducible IL2FLGluc 293FRT/TO: IL2/PD1: ratio of IL2FLGluc IC50 to PD1ssGluc IC50. Put shortly:
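Stable Flp-In 293 T-REx line, Tet-regulated IL-2 (aa 1-153)–Gaussia luciferase fusion; hygromycin/blasticidin selected. Plated day -1; compound + doxycycline added next day; 37° C, 5% CO2.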

A short description of data set [4]: Liver Microsome Stability Assay (rat). Particulars: rat liver microsomes, with NADPH, 1.0 uM compound.
Experimental: as §1
Data set [5] deals with HER3-ss+4aa/Gaussia Luciferase. Put plainly: Dox-Induced Her3-ss-Gluc Assay. It counts as cell-based. Particulars: 24 hr Dox induction, 293FRT/TO cells, read-out: 24 hr Dox Inducible Her3(ss + 4)Gluc 293FRT/TO: Mean IC50. Put shortly:
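Flp-In 293 T-REx cells, stable HER3-ss+4aa/Gaussia luciferase insert, hygromycin/blasticidin selected; plated day before; compound in DMSO/media + doxycycline; 37° C., 5% CO2.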

The test system of data set [6] is PD1-ss+10aa/Gaussia Luciferase. Put plainly: Dox-Induced PD1-ss-Gluc Assay. The class given is cell-based. Conditions: 24 hr Dox induction, 293FRT/TO cells, read-out: 24 hr Dox Inducible PD1ssGluc 293FRT/TO: Mean IC50. Put shortly: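 Compounds were added in DMSO/media with doxycycline and incubated at 37 °C, 5% CO2, on 293 T-REx cells plated one day earlier. These cells stably express, under tetracycline-regulated control, a Gaussia luciferase fused to the PD1 signal peptide plus 10 residues. Structures drawn without stereochemistry were tested as stereoisomer mixtures.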

A short description of data set [7]: Liver Microsome Stability Assay (mouse). Conditions: mouse liver microsomes, with NADPH, 1.0 uM compound.
Experimental: as §1
In data set [8] the test system is multiple myeloma cell line U266B1. Put plainly: U266 Cell Viability Assay. It counts as cell-based, human. Conditions: Homo sapiens, U-266, 48 h, U266B1 cells, Celltiter-Glo. Put shortly: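 Luminescent ATP read-out (CellTiter-Glo) after 48 h compound exposure at 37° C., 5% CO2; cells maintained in RPMI 1640/10% FBS/2 mM glutamine/pen-strep, compounds diluted in DMSO/media.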

The nature of data set [9]: Liver Microsome Stability Assay (human). Conditions: human liver microsomes, with NADPH, 1.0 uM compound.
Experimental: as §1
Data set [10] deals with TNFα-FL/Gaussia Luciferase. Put plainly: Dox Induced TNFα-FL-Gluc Assay. It counts as cell-based. Particulars: for IC50: 24 hr Dox induction, 293FRT/TO cells, read-out: 24 hr Dox Inducible TNFaFLGluc 293FRT/TO: Mean IC50; for 24 hr Dox Inducible TNFaFLGluc 293FRT/TO: TNF/PD1: ratio of TNFaFLGluc IC50 to PD1ssGluc IC50. Put shortly: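 Cell line: stable Flp-In 293 T-REx, TNFα-FL(1-233)-Gaussia luciferase fusion, T-REx-inducible. Plated day -1; compounds in DMSO/media + doxycycline, 37 °C, 5% CO2. Undefined stereocentres = mixture tested.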

The mark [11] stands for this setting: '<=>' given where both are I.A.

Read-outs that look alike come from different tables or passages of the source.

What is called EC50 is the midpoint of the concentration-response curve. For `C[C@@H](O)c1ccc(N2CCC[C@@H]2c2csc(NC(=O)c3cccn3Cc3ccnc(F)c3)n2)cc1` [Compound A111, 1-((2-fluoropyridin-4-yl)methyl)-N-(4-((R)-1-(4-((R)-1-hydroxyethyl)phenyl)pyrrolidin-2-yl)thiazol-2-yl)-1H-pyrrole-2-carboxamide], the EC50 was 422 nM in [1] and over 25000 nM in data set [8]. Also, the “Liver Microsome Stability (Multiple Species): Monkey - % Remaining after 30 min w/NADPH” value in data set [2] turned out to be 3.48%. In addition, the IC50 turned out to be 16.3 nM in data set [3], 13.6 nM in [5], 7.92 nM in [6] and 94.5 nM in [10]. Also, the “24 hr Dox Inducible IL2FLGluc 293FRT/TO: IL2/PD1” value in data set [3] is reported as 2.1. The “Liver Microsome Stability (Multiple Species): Rat - % Remaining after 30 min w/NADPH” value in [4] was found to be 7.97%. Besides, the “Liver Microsome Stability (Multiple Species): Mouse - % Remaining after 30 min w/NADPH” value in [7] stood at 12.7%. For the same molecule, the “Liver Microsome Stability (Multiple Species): Human - % Remaining after 30 min w/NADPH” value in data set [9] came to 2.78%. Moreover, the “24 hr Dox Inducible TNFaFLGluc 293FRT/TO: TNF/PD1” value in data set [10] was 11.9.
Turning to `O=C(Nc1nc([C@H]2CCCN2c2ccc(CCO)cc2)cs1)c1cccn1Cc1ccnc(F)c1` [Compound A78, (R)-1-((2-fluoropyridin-4-yl)methyl)-N-(4-(1-(4-(2-hydroxyethyl)phenyl)pyrrolidin-2-yl)thiazol-2-yl)-1H-pyrrole-2-carboxamide], the EC50 was 495 nM in [1] and over 25000 nM in data set [8]. In data set [2], the “Liver Microsome Stability (Multiple Species): Monkey - % Remaining after 30 min w/NADPH” value was 3.13%. Also, the IC50 worked out at 30.1 nM in data set [3], 27.7 nM in data set [5], 13.2 nM in [6] and 159 nM in data set [10]. The “24 hr Dox Inducible IL2FLGluc 293FRT/TO: IL2/PD1” value in [3] turned out to be 2.3. Also, in data set [4], the “Liver Microsome Stability (Multiple Species): Rat - % Remaining after 30 min w/NADPH” value came out at 3.42%. Moreover, the “Liver Microsome Stability (Multiple Species): Mouse - % Remaining after 30 min w/NADPH” value in data set [7] is given as 6.09%. The “Liver Microsome Stability (Multiple Species): Human - % Remaining after 30 min w/NADPH” value in [9] came out at 6.01%. Also, the “24 hr Dox Inducible TNFaFLGluc 293FRT/TO: TNF/PD1” value in [10] is 12.
For `CCn1cnc(/C=C/c2csc(NC(=O)c3cccn3Cc3ccnc(F)c3)n2)c1` [Compound B65, (E)-N-(4-(2-(1-ethyl-1H-imidazol-4-yl)vinyl)thiazol-2-yl)-1-((2-fluoropyridin-4-yl)methyl)-1H-pyrrole-2-carboxamide], the figures for the EC50 in data set [1] and in data set [8] were 24500 nM and over 25000 nM, respectively. Moreover, the “Liver Microsome Stability (Multiple Species): Monkey - % Remaining after 30 min w/NADPH” value in data set [2] was 0.08%. The IC50 in data set [3] is over 25000 nM; in data set [5], over 25000 nM; in data set [6], 120 nM; in [10], over 25000 nM. Besides, the “24 hr Dox Inducible IL2FLGluc 293FRT/TO: IL2/PD1” value in data set [3] is reported as over 210. Besides, in data set [4], the “Liver Microsome Stability (Multiple Species): Rat - % Remaining after 30 min w/NADPH” value was determined as 4.75%. Besides, in data set [7], the “Liver Microsome Stability (Multiple Species): Mouse - % Remaining after 30 min w/NADPH” value was 7.82%. In data set [9], the “Liver Microsome Stability (Multiple Species): Human - % Remaining after 30 min w/NADPH” value is recorded as 0.18%. In addition, the “24 hr Dox Inducible TNFaFLGluc 293FRT/TO: TNF/PD1” value in [10] is listed as over 208.
For the molecule `O=C(Nc1nc([C@H]2CCCN2c2ccccc2)cs1)c1cccn1Cc1cccc(F)c1` [Compound C118, (R)-1-(3-fluorobenzyl)-N-(4-(1-phenylpyrrolidin-2-yl)thiazol-2-yl)-1H-pyrrole-2-carboxamide], the EC50 in [1] and in data set [8] was over 25000 nM each time. The “Liver Microsome Stability (Multiple Species): Monkey - % Remaining after 30 min w/NADPH” value in [2] was found to be 26.9%. Also, the IC50 in data set [3] (mean) was found to be 1010 nM; in [5] (mean), 732 nM; in data set [6] (mean), 719 nM; in data set [10] (mean) it was 9780 nM. Also, in data set [3] (setting [11]), the “24 hr Dox Inducible IL2FLGluc 293FRT/TO: IL2/PD1” value is 1.4. Besides, the “Liver Microsome Stability (Multiple Species): Rat - % Remaining after 30 min w/NADPH” value in data set [4] is 33.5%. Also, the “Liver Microsome Stability (Multiple Species): Mouse - % Remaining after 30 min w/NADPH” value in data set [7] turned out to be 48.1%. For the same molecule, the “Liver Microsome Stability (Multiple Species): Human - % Remaining after 30 min w/NADPH” value in data set [9] was 59.7%. The “24 hr Dox Inducible TNFaFLGluc 293FRT/TO: TNF/PD1” value in [10] (setting [11]) worked out at 13.6.
For `N#Cc1cnccc1Cn1cccc1C(=O)Nc1nc([C@H]2CCCN2c2ccccc2)cs1` [Compound E59, (R)-1-((3-cyanopyridin-4-yl)methyl)-N-(4-(1-phenylpyrrolidin-2-yl)thiazol-2-yl)-1H-pyrrole-2-carboxamide], the EC50 in data set [1] was 15200 nM; in data set [8], over 25000 nM. Further, the “Liver Microsome Stability (Multiple Species): Monkey - % Remaining after 30 min w/NADPH” value in data set [2] turned out to be 0.56%. Also, the IC50 in [3] (mean) came out at 932 nM; in [5] (mean) it was 581 nM; in [6] (mean), 408 nM; in data set [10] (mean) it was 12600 nM. Besides, the “24 hr Dox Inducible IL2FLGluc 293FRT/TO: IL2/PD1” value in data set [3] (setting [11]) came out at 2.3. Also, the “Liver Microsome Stability (Multiple Species): Rat - % Remaining after 30 min w/NADPH” value in data set [4] came out at 0.83%. The “Liver Microsome Stability (Multiple Species): Mouse - % Remaining after 30 min w/NADPH” value in [7] stood at 0.39%. The “Liver Microsome Stability (Multiple Species): Human - % Remaining after 30 min w/NADPH” value in data set [9] amounted to 0.22%. For the same molecule, the “24 hr Dox Inducible TNFaFLGluc 293FRT/TO: TNF/PD1” value in data set [10] (setting [11]) worked out at 30.9.
Take `N#CC1CC(Cn2cccc2C(=O)Nc2nc([C@H]3CCCN3c3ccccc3)cs2)C1` (stereo partly drawn) [Compound C106, (R)-1-((3-cyanocyclobutyl)methyl)-N-(4-(1-phenylpyrrolidin-2-yl)thiazol-2-yl)-1H-pyrrole-2-carboxamide]: the half-maximal effective concentration (EC50) in data set [1] and in data set [8] was over 25000 nM throughout. Moreover, in data set [2], the “Liver Microsome Stability (Multiple Species): Monkey - % Remaining after 30 min w/NADPH” value stood at 1.96%. For the same molecule, the IC50 in data set [3] (mean) came out at 2640 nM; in data set [5] (mean), 1430 nM; in data set [6] (mean), 1090 nM; in data set [10] (mean), 19400 nM. Moreover, in data set [3] (setting [11]), the “24 hr Dox Inducible IL2FLGluc 293FRT/TO: IL2/PD1” value came to 2.4. Besides, the “Liver Microsome Stability (Multiple Species): Rat - % Remaining after 30 min w/NADPH” value in data set [4] amounted to 3.54%. Also, the “Liver Microsome Stability (Multiple Species): Mouse - % Remaining after 30 min w/NADPH” value in [7] worked out at 28.8%. Also, the “Liver Microsome Stability (Multiple Species): Human - % Remaining after 30 min w/NADPH” value in data set [9] worked out at 19%. In addition, the “24 hr Dox Inducible TNFaFLGluc 293FRT/TO: TNF/PD1” value in [10] (setting [11]) was found to be 17.7.
As for `O=C(Nc1nc(/C=C/c2cn3ccccc3n2)cs1)c1cccn1Cc1ccncc1` [Compound B50, (E)-N-(4-(2-(imidazo[1,2-a]pyridin-2-yl)vinyl)thiazol-2-yl)-1-(pyridin-4-ylmethyl)-1H-pyrrole-2-carboxamide], the 50% effective concentration (EC50) in data set [1] is 18800 nM; in data set [8], over 24600 nM. Besides, in [2], the “Liver Microsome Stability (Multiple Species): Monkey - % Remaining after 30 min w/NADPH” value is given as 0.74%. Besides, the IC50 in data set [3] is over 25000 nM; in data set [5], 11400 nM; in [6] it was 339 nM; in data set [10] it was over 25000 nM. In [3], the “24 hr Dox Inducible IL2FLGluc 293FRT/TO: IL2/PD1” value is given as over 74. Moreover, the “Liver Microsome Stability (Multiple Species): Rat - % Remaining after 30 min w/NADPH” value in [4] is 0.06%. For the same molecule, the “Liver Microsome Stability (Multiple Species): Mouse - % Remaining after 30 min w/NADPH” value in data set [7] turned out to be 0.94%. Besides, in data set [9], the “Liver Microsome Stability (Multiple Species): Human - % Remaining after 30 min w/NADPH” value is given as 1.21%. For the same molecule, in data set [10], the “24 hr Dox Inducible TNFaFLGluc 293FRT/TO: TNF/PD1” value is given as over 73.7.
